EC50 data for 21 compounds are collected here from US20240246964A1 (Arbutus Biopharma Corporation, priority 2021, published 2024).

The assay addresses human PD-L1 (Homo sapiens (Human), UniProt Q9NZQ7). Description: T cell activation luciferase reporter cell culture system (T Cell Activation Assay). Format: cell-based. To be noted: luciferase reporter assay; PD-L1 aAPC/CHO-K1 cells with PD-1 effector Jurkat T cells.

Molecules are shown by their SMILES.

human PD-L1, sequence (Q9NZQ7 19-290): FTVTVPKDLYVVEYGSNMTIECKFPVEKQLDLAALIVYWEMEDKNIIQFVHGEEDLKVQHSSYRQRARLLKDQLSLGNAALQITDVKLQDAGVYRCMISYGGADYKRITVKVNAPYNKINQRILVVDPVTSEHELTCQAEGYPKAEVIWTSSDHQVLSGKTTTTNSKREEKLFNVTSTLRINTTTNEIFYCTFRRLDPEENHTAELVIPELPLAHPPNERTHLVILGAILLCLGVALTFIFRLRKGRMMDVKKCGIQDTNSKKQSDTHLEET

Compound `COc1cc(-c2ncnc(-c3cccc(-c4ccc(CN[C@H]5C[C@@H](O)C5)c(OC)n4)c3Cl)c2Cl)ccc1CN[C@H]1C[C@@H](O)C1` [Example 592, (1s,3s)-3-(((6-(2-Chloro-3-(5-chloro-6-(4-((((1s,3s)-3-hydroxycyclobutyl)amino)methyl)-3-methoxyphenyl)pyrimidin-4-yl)phenyl)-2-methoxypyridin-3-yl)methyl)amino)cyclobutan-1-ol] registered a concentration for a half-maximal effect (EC50) of 86.4 nM.

Take `COc1nc(-c2cccc(-c3ccnc(-c4cc(OC)c5nc(CN[C@H]6C[C@](C)(O)C6)nn5c4)c3Cl)c2Cl)ccc1CNC1CCN(C(C)=O)CC1` [Example 596, 1-(4-(((6-(2-Chloro-3-(3-chloro-2-(2-((((1r,3r)-3-hydroxy-3-methylcyclobutyl)amino)methyl)-8-methoxy-[1,2,4]triazolo[1,5-a]pyridin-6-yl)pyridin-4-yl)phenyl)-2-methoxypyridin-3-yl)methyl)amino)piperidin-1-yl)ethan-1-one]: it took 350 nM to reach a half-maximal effect (EC50).

Regarding `COc1nc(-c2cccc(-c3ccnc(-c4ccc(CN5CC6(CNC(=O)C6)C5)c(OC(F)F)c4)c3Cl)c2Cl)ccc1CN1CC2(CNC(=O)C2)C1` [Example 597, 2-((6-(2-Chloro-3-(3-chloro-2-(3-(difluoromethoxy)-4-((7-oxo-2,6-diazaspiro[3.4]octan-2-yl)methyl)phenyl)pyridin-4-yl)phenyl)-2-methoxypyridin-3-yl)methyl)-2,6-diazaspiro[3.4]octan-7-one], the EC50 is 16.4 nM. This EC50 lies about 21-fold lower than the previous one.

In the case of `COc1nc(-c2cccc(-c3ccnc(-c4ccc(CN5CC6(C5)CN(C(C)=O)C6)c(OC(F)F)c4)c3Cl)c2Cl)ccc1CN1CC2(C1)CN(C(C)=O)C2` [Example 598, 1-(6-((6-(3-(2-(4-((6-Acetyl-2,6-diazaspiro[3.3]heptan-2-yl)methyl)-3-(difluoromethoxy)phenyl)-3-chloropyridin-4-yl)-2-chlorophenyl)-2-methoxypyridin-3-yl)methyl)-2,6-diazaspiro[3.3]heptan-2-yl)ethan-1-one], a half-maximal response (EC50) required 36.8 nM.

As to `COc1cc(-c2nccc(-c3cccc(-c4ccc(CNC5CC6(COC6)C5)c(OC)n4)c3C(F)(F)F)c2Cl)ccc1CNC1CC2(COC2)C1` (stereo not drawn) [Example 604, N-((6-(3-(2-(4-(((2-Oxaspiro[3.3]heptan-6-yl)amino)methyl)-3-methoxyphenyl)-3-chloropyridin-4-yl)-2-(trifluoromethyl)phenyl)-2-methoxypyridin-3-yl)methyl)-2-oxaspiro[3.3]heptan-6-amine], the EC50 was at least 10000 nM.

Compound `COCCC(=O)N1CCC(NCc2ccc(-c3cccc(-c4ccnc(-c5ccc(CNC6CCN(C(C)=O)CC6)c(OC)c5)c4Cl)c3Cl)nc2OC)CC1` [Example 607, 1-(4-(((6-(3-(2-(4-(((1-Acetylpiperidin-4-yl)amino)methyl)-3-methoxyphenyl)-3-chloropyridin-4-yl)-2-chlorophenyl)-2-methoxypyridin-3-yl)methyl)amino)piperidin-1-yl)-3-methoxypropan-1-one] displayed an EC50 of 18.3 nM.

Regarding `COc1nc(-c2ccnc(-c3cccc4c3CC[C@@H]4Oc3nc(OC)c(CNC4CCOCC4)cc3C(F)(F)F)c2Cl)ccc1CNC[C@@H]1CCC(=O)N1` [Example 608, (S)-5-((((3′-Chloro-6-methoxy-2′-((S)-1-((6-methoxy-5-(((tetrahydro-2H-pyran-4-yl)amino)methyl)-3-(trifluoromethyl)pyridin-2-yl)oxy)-2,3-dihydro-1H-inden-4-yl)-[2,4′-bipyridin]-5-yl)methyl)amino)methyl)pyrrolidin-2-one], the 50% effective concentration (EC50) was 22.4 nM.

The compound `COc1nc(-c2cccc(-c3ccnc(-c4ccc5c(c4)S(=O)(=O)CCN(C[C@H](C)O)C5)c3Cl)c2Cl)ccc1CNC[C@@H]1CCC(=O)N1` [Example 611, (S)-5-((((6-(2-Chloro-3-(3-chloro-2-(4-((S)-2-hydroxypropyl)-1,1-dioxido-2,3,4,5-tetrahydrobenzo[f][1,4]thiazepin-8-yl)pyridin-4-yl)phenyl)-2-methoxypyridin-3-yl)methyl)amino)methyl)pyrrolidin-2-one] yielded an EC50 of at least 10000 nM.

As for `COc1cc(-c2nccc(-c3cccc(-c4ccc(CNCCO)c(OC)n4)c3C(F)(F)F)c2Cl)ccc1CNCCO` [Example 612, 2-(((6-(3-(3-Chloro-2-(4-(((2-hydroxyethyl)amino)methyl)-3-methoxyphenyl)pyridin-4-yl)-2-(trifluoromethyl)phenyl)-2-methoxypyridin-3-yl)methyl)amino)ethan-1-ol], the EC50 was at least 10000 nM.

In turn, `CNCc1ccc(-c2nccc(-c3cccc(-c4ccc(CNC)c(OC)n4)c3C(F)(F)F)c2Cl)cc1OC` [Example 613, 1-(6-(3-(3-Chloro-2-(3-methoxy-4-((methylamino)methyl)phenyl)pyridin-4-yl)-2-(trifluoromethyl)phenyl)-2-methoxypyridin-3-yl)-N-methylmethanamine] showed an EC50 of at least 10000 nM.

In turn, `COCCNCc1ccc(-c2nccc(-c3cccc(-c4ccc(CNCCOC)c(OC)n4)c3C(F)(F)F)c2Cl)cc1OC` [Example 614, N-((6-(3-(3-Chloro-2-(3-methoxy-4-(((2-methoxyethyl)amino)methyl)phenyl)pyridin-4-yl)-2-(trifluoromethyl)phenyl)-2-methoxypyridin-3-yl)methyl)-2-methoxyethan-1-amine] registered a half-maximal effective concentration (EC50) of at least 10000 nM.

`COCCC(=O)N1CCC(NCc2ccc(-c3cccc(-c4ccnc(-c5ccc(CN6CCC(O)CC6)c(OC)c5)c4Cl)c3Cl)nc2OC)CC1` [Example 616, 1-(4-(((6-(2-Chloro-3-(3-chloro-2-(4-((4-hydroxypiperidin-1-yl)methyl)-3-methoxyphenyl)pyridin-4-yl)phenyl)-2-methoxypyridin-3-yl)methyl)amino)piperidin-1-yl)-3-methoxypropan-1-one] returned a half-maximal effective concentration (EC50) of 36 nM.

On to `COc1nc(-c2cccc(-c3ccnc(-c4ccc(CNC[C@@H]5CCC(=O)N5)c(OC(F)F)c4)c3Cl)c2Cl)ccc1CNC[C@@H]1CCC(=O)N1` [Example 617, (S)-5-((((6-(2-Chloro-3-(3-chloro-2-(3-(difluoromethoxy)-4-(((((S)-5-oxopyrrolidin-2-yl)methyl)amino)methyl)phenyl)pyridin-4-yl)phenyl)-2-methoxypyridin-3-yl)methyl)amino)methyl)pyrrolidin-2-one], for which the EC50 was found to be 38.9 nM.

Compound `COc1nc(-c2cccc(-c3ccnc(-c4ccc(CNC5CCOCC5)c(OC(F)F)c4)c3Cl)c2Cl)ccc1CNC1CCOCC1` [Example 618, N-((6-(2-Chloro-3-(3-chloro-2-(3-(difluoromethoxy)-4-(((tetrahydro-2H-pyran-4-yl)amino)methyl)phenyl)pyridin-4-yl)phenyl)-2-methoxypyridin-3-yl)methyl)tetrahydro-2H-pyran-4-amine] showed an EC50 of 57.7 nM. The EC50 values of the last two compounds are within 1.5-fold of each other.

Consider `COc1nc(-c2cccc(-c3ccnc(-c4ccc(CNC5CCN(CCO)CC5)c(OC(F)F)c4)c3Cl)c2Cl)ccc1CNC1CCN(CCO)CC1` [Example 620, 2-(4-(((6-(2-Chloro-3-(3-chloro-2-(3-(difluoromethoxy)-4-(((1-(2-hydroxyethyl)piperidin-4-yl)amino)methyl)phenyl)pyridin-4-yl)phenyl)-2-methoxypyridin-3-yl)methyl)amino)piperidin-1-yl)ethan-1-ol], for which the EC50 was determined as 44.9 nM. The EC50 values of the last two compounds are within 1.5-fold of each other.

Consider `COc1cc(-c2ccnc(-c3cccc(-c4ccc(CN5CC6(CNC(=O)C6)C5)c(OC)n4)c3Cl)c2Cl)ccc1CN1CC2(CNC(=O)C2)C1` [Example 622, 2-(4-(3-Chloro-2-(2-chloro-3-(6-methoxy-5-((7-oxo-2,6-diazaspiro[3.4]octan-2-yl)methyl)pyridin-2-yl)phenyl)pyridin-4-yl)-2-methoxybenzyl)-2,6-diazaspiro[3.4]octan-7-one], for which a half-maximal response (EC50) required 216 nM.

Consider `COc1cc(-c2ccnc(-c3cccc(-c4ccc(CNC5CCOCC5)c(OC)n4)c3Cl)c2Cl)ccc1CNC1CCOCC1` [Example 623, N-(4-(3-Chloro-2-(2-chloro-3-(6-methoxy-5-(((tetrahydro-2H-pyran-4-yl)amino)methyl)pyridin-2-yl)phenyl)pyridin-4-yl)-2-methoxybenzyl)tetrahydro-2H-pyran-4-amine], for which the concentration for a half-maximal effect (EC50) was determined as 222 nM.

Consider `COc1cc(-c2ccnc(-c3cccc(-c4ccc(CNC[C@@H]5CCC(=O)N5)c(OC)n4)c3Cl)c2Cl)ccc1CNC[C@@H]1CCC(=O)N1` [Example 624, (S)-5-(((4-(3-Chloro-2-(2-chloro-3-(6-methoxy-5-(((((S)-5-oxopyrrolidin-2-yl)methyl)-amino)methyl)pyridin-2-yl)phenyl)pyridin-4-yl)-2-methoxybenzyl)-amino)methyl)pyrrolidin-2-one], for which a half-maximal response (EC50) required 16.7 nM.

In the case of `COCCC(=O)N1CCC(NCc2ccc(-c3cccc(-c4ccnc(-c5ccc(CN6CC7(CNC(=O)C7)C6)c(OC)c5)c4Cl)c3Cl)nc2OC)CC1` [Example 625, 2-(4-(3-Chloro-4-(2-chloro-3-(6-methoxy-5-(((1-(3-methoxypropanoyl)piperidin-4-yl)amino)methyl)pyridin-2-yl)phenyl)pyridin-2-yl)-2-methoxybenzyl)-2,6-diazaspiro[3.4]octan-7-one], the midpoint of the response, the EC50, lay at 20.8 nM.

With `COc1cc(-c2ncnc(-c3cccc(-c4ccc(CNC5CCOCC5)c(OC)n4)c3Cl)c2Cl)ccc1CNC1CCOCC1` [Example 626, N-((6-(2-Chloro-3-(5-chloro-6-(3-methoxy-4-(((tetrahydro-2H-pyran-4-yl)amino)methyl)phenyl)pyrimidin-4-yl)phenyl)-2-methoxypyridin-3-yl)methyl)tetrahydro-2H-pyran-4-amine], it took 79 nM to reach a half-maximal effect (EC50). Compared with the last compound, the EC50 is about 3.8-fold higher.

`COCCC(=O)N1CCC(NCc2ccc(-c3cccc(-c4ccnc(-c5ccc(CN6CC7(C6)CN(C(C)=O)C7)c(OC)c5)c4Cl)c3Cl)nc2OC)CC1` [Example 631, 1-(4-(((6-(3-(2-(4-((6-Acetyl-2,6-diazaspiro[3.3]heptan-2-yl)methyl)-3-methoxyphenyl)-3-chloropyridin-4-yl)-2-chlorophenyl)-2-methoxypyridin-3-yl)methyl)amino)piperidin-1-yl)-3-methoxypropan-1-one] registered an EC50 of 37.7 nM.
